Data taken from article PMC9995496, “A screen for MeCP2-TBL1 interaction inhibitors using a luminescence-based assay” (Scientific Reports, 2023).
Counter-ions that a name gives are not always drawn. Like-named read-outs stand apart in the source and are kept apart here.

System: PRKACA-PRKAR2A interaction (SmBiT-PRKACA / LgBiT-PRKAR2A), protein kinase A
Set-up: NanoLuc complementation counter-screen in cell extract, PRKACA with PRKAR2A, loss of luminescence, detects NanoLuc interference
Details: 0.5 h, 20 µM, inhibitor
[1] = counter-screen for NanoLuc interference
[2] = counter-screen for NanoLuc interference, Inh (PKA)

| SMILES | Inh (PKA) [1] [%] | also measured |
| --- | --- | --- |
| CC(C)(C)c1cc(NC(=O)Nc2ccc(-c3cn4c(n3)sc3cc(OCCN5CCOCC5)ccc34)cc2)no1 [UM0130989:03, Quizartinib (AC220)] | 1.247 |  |
| CNC(=O)c1cc(Oc2ccc(NC(=O)Nc3ccc(Cl)c(C(F)(F)F)c3)cc2)ccn1 [UM0130993:02, Sorafenib Tosylate] |  | Inh (PKA) [2]: 7.099% |
| COc1ccc(Cl)c(Nc2nc3ccccc3nc2NS(=O)(=O)c2cccc(NC(=O)C(C)(C)N)c2)c1 [UM0130997:02, XL147] | 61.81 |  |
| Cc1ccc(NC(=O)c2cccc(N(C)C)c2)cc1NC(=O)c1ccc(O)cc1 [UM0130998:02, ZM336372] | 21.08 |  |
| CCN(CC)CCCCNc1ncc2cc(-c3cc(OC)cc(OC)c3)c(NC(=O)NC(C)(C)C)nc2n1 [UM0131000:03, PD 173074] | 0.205 |  |
| COc1cc2nccc(Oc3ccc(NC(=O)Nc4ccc(F)cc4F)c(F)c3)c2cc1OC [UM0131001:04, Ki8751] | 5.997 |  |
| CCN(CC)CCOc1ccc(C(=C(Cl)c2ccccc2)c2ccccc2)cc1 [UM0132668:02, Clomiphene citrate] | 14.01 |  |
| N[C@@H](Cc1ccc(N(CCCl)CCCl)cc1)C(=O)O [UM0132725:02, Melphalan] |  | Inh (PKA): 3.23 |
| Cn1ccnc1S [UM0132728:02, Methimazole] | 3.033 |  |
| CCCc1cc(=O)[nH]c(=S)[nH]1 [UM0132755:02, Propylthiouracil] | 1.031 |  |
| Cn1c(=O)c2nc[nH]c2n(C)c1=O [UM0132766:02, Theophylline] | -0.2913 |  |
| CNCCc1ccccn1 [UM0132794:02, Betahistine 2HCl] | 2.049 |  |
| COc1c(C)c2c(c(O)c1C/C=C(\C)CCC(=O)O)C(=O)OC2 [UM0132795:02, Mycophenolic acid] | 1.414 |  |
| O=c1ccc2cc(O)c(O)cc2o1 [UM0132846:02, 6,7-Dihydroxycoumarin] | 4.392 |  |
| COc1ccc2c3c1O[C@H]1C[C@@H](O)C=C[C@@]31CCN(C)C2 [UM0132882:02, Galanthamine HBr] |  | Inh (PKA) [2]: 0.1906% |
| CCOC(=O)[C@H](CCc1ccccc1)N[C@@H](C)C(=O)N1CCC[C@H]1C(=O)O [UM0132889:02, Enalapril Maleate] | -0.0661 |  |
| Nc1nc(=O)c2nc(CNc3ccc(C(=O)N[C@@H](CCC(=O)O)C(=O)O)cc3)cnc2[nH]1 [UM0132892:02, Folic acid] | 2.052 |  |
| CC(=O)/N=c1/sc(S(N)(=O)=O)nn1C [UM0132958:02, Methazolamide] | 0.8823 |  |
| CCN1CCN(c2cc3c(cc2F)c(=O)c(C(=O)O)cn3C2CC2)CC1 [UM0132985:02, Enrofloxacin] | 1.786 |  |
| C=CC[C@@H]1/C=C(\C)C[C@H](C)C[C@H](OC)[C@H]2O[C@@](O)(C(=O)C(=O)N3CCCC[C@H]3C(=O)O[C@H](/C(C)=C/[C@@H]3CC[C@@H](O)[C@H](OC)C3)[C@H](C)[C@@H](O)CC1=O)[C@H](C)C[C@@H]2OC [UM0132999:02, Tacrolimus (FK506)] | 15.44 |  |
| CC[C@H](C)C(=O)O[C@H]1C[C@@H](C)C=C2C=C[C@H](C)[C@H](CC[C@@H]3C[C@@H](O)CC(=O)O3)[C@H]21 [UM0133001:02, Lovastatin] | 15.39 |  |
| CS(=O)(=O)c1ccc(C2=C(c3ccccc3)C(=O)OC2)cc1 [UM0133054:02, Rofecoxib] | 1.384 |  |
| CCCCC1=NC2(CCCC2)C(=O)N1Cc1ccc(-c2ccccc2-c2nnn[nH]2)cc1 [UM0133057:02, Irbesartan] | 5.211 |  |
| CC1COc2c(N3CCN(C)CC3)c(F)cc3c(=O)c(C(=O)O)cn1c23 (stereo not shown) [UM0133058:02, Ofloxacin] | -0.3552 |  |
| Cc1ccc(=O)n(-c2ccccc2)c1 [UM0133133:02, Pirfenidone] | 0.9802 |  |

| SMILES | Inh (PKA) [1] [%] | also measured |
| --- | --- | --- |
| CCOC(=O)[C@H](CCc1ccccc1)N[C@@H](C)C(=O)N1[C@H](C(=O)O)C[C@@H]2CCC[C@@H]21 [UM0133179:02, Ramipril] | 0.6461 |  |
| C/C=C1\[C@H]2C=C(C)C[C@]1(N)c1ccc(=O)[nH]c1C2 [UM0133189:02, (-)-Huperzine A] | 0.2799 |  |
| COc1ccc(-c2oc3c(CC=C(C)C)c(O[C@@H]4O[C@H](CO)[C@@H](O)[C@H](O)[C@H]4O)cc(O)c3c(=O)c2O[C@@H]2O[C@@H](C)[C@H](O)[C@@H](O)[C@H]2O)cc1 [UM0133190:02, Icariin] | 17.39 |  |
| CNCC[C@H](Oc1cccc2ccccc12)c1cccs1 [UM0133232:02, Duloxetine HCl] | 23.56 |  |
| CN(C/C=C/C#CC(C)(C)C)Cc1cccc2ccccc12 [UM0133235:02, Terbinafine HCl] | 7.743 |  |
| Oc1cc(Cl)ccc1Oc1ccc(Cl)cc1Cl [UM0133255:02, Triclosan] | 50.68 |  |
| CCOC(=O)c1cncn1[C@H](C)c1ccccc1 [UM0133274:02, Etomidate] |  | Inh (PKA): 13.38% |
| CN1CC(=O)N2[C@H](c3ccc4c(c3)OCO4)c3[nH]c4ccccc4c3C[C@@H]2C1=O [UM0133276:02, Tadalafil] | 5.88 |  |
| CN(C)CCOc1ccc(/C(=C(/CCCl)c2ccccc2)c2ccccc2)cc1 [UM0133287:02, Toremifene Citrate] | 53.21 |  |
| CC(=O)NCCCS(=O)(=O)O [UM0133300:02, Acamprosate calcium] | 0.9397 |  |
| CSc1nc2cc(Cl)c(Oc3cccc(Cl)c3Cl)cc2[nH]1 [UM0133345:02, Triclabendazole] | 37.19 |  |
| O=C(N/N=C/c1ccc([N+](=O)[O-])o1)c1ccc(O)cc1 [UM0133346:02, Nifuroxazide] | 17.08 |  |
| CCOC(=O)C1=C[C@@H](OC(CC)CC)[C@H](NC(C)=O)[C@@H](N)C1 [UM0133352:02, Oseltamivir phosphate] |  | Inh (PKA) [2]: -0.5287% |
| O=C1CCc2ccc(OCCCCN3CCN(c4cccc(Cl)c4Cl)CC3)cc2N1 [UM0133361:02, Aripiprazole] | 19.63 |  |
| CC1=C(O)C(=O)C=C2C1=CC=C1[C@@]2(C)CC[C@@]2(C)[C@@H]3C[C@](C)(C(=O)O)CC[C@]3(C)CC[C@]12C [UM0133421:02, Celastrol] | 15.02 |  |
| C/C=C/c1ccc2c(c1)OCO2 [UM0133473:02, Isosafrole] |  | Inh (PKA): 2.424% |
| Clc1ccc2c(c1)C(N1CCNCC1)=Nc1ccccc1O2 [UM0133517:02, Amoxapine] | 7.389 |  |
| Nc1ncn([C@@H]2O[C@H](CO)[C@@H](O)[C@H]2O)c(=O)n1 [UM0133525:02, 5-Azacytidine] | 1.069 |  |
| CN(Cc1cnc2nc(N)nc(N)c2n1)c1ccc(C(=O)N[C@@H](CCC(=O)O)C(=O)O)cc1 [UM0133539:02, Methotrexate] | 2.622 |  |
| O=c1c(O)c(-c2ccc(O)c(O)c2)oc2cc(O)cc(O)c12 [UM0133552:02, Quercetin dihydrate] |  | Inh (PKA) [2]: 33.9% |
| O=c1c(O)c(-c2ccc(O)c(O)c2)oc2cc(O)cc(O)c12 [UM0133552:03, Quercetin] |  | Inh (PKA) [2]: 26.1% |
| NC(=O)N1c2ccccc2C=Cc2ccccc21 [UM0133618:02, Carbamazepine] | 3.187 |  |
| NS(=O)(=O)c1cc2c(cc1Cl)N=CNS2(=O)=O [UM0133622:02, Chlorothiazide] | 0.9686 |  |
| Cc1nnc(SCC2=C(C(=O)O)N3C(=O)[C@@H](NC(=O)Cn4cnnn4)[C@H]3SC2)s1 [UM0133624:02, Cefazolin (sodium salt)] | 0.1508 |  |
